According to PMC8151276, “An Integrated Approach toward NanoBRET Tracers for Analysis of GPCR Ligand Engagement” (Molecules, 2021):

Experiments:
Type in all cases: binding
LHCGR = molecular target: T1, LHCGR (Homo sapiens, UniProt P22888); assay: NanoBRET screen HiBiT-LHCGR in HEK293
T1 construct: purchased Promega (in-house HiBiT-GPCR construct library, NanoBRET)
Protocol: (§1) Each tracer candidate was screened across the entire library of HiBiT-GPCR constructs using NanoBRET as the detection modality. As depicted in Figure 4A, the specificity of interactions was evaluated through decrease in BRET due to competitive displacement of a bound tracer by excess parental compound. Each tracer was analyzed for binding to each HiBiT-GPCR fusion in the absence and in the presence of competing parental compound. Briefly, HEK293 cells were transfected with HiBiT-GPCR constructs diluted into promoterless DNA to reduce expression and maximize translocation to the cell surface. Each tracer candidate was then screened at concentrations of 1 μM and 0.1 μM across cells expressing these fusions. Cells were treated for 1.5 h with tracer either alone or in the presence of 20 μM competing parental compound (i.e., control). BRET was measured upon addition of purified LgBiT and subsequent complementation with HiBiT genetically fused to a GPCR. The specificity of interactions was assessed through a decrease in BRET signal due to competitive displacement of the bound tracer. To further gauge the robustness of these interactions, the fold response over the control (i.e., BRETtracer/BRETcontrol) was calculated. We chose a 1.5-fold response, which translates to ≥7-fold signal over noise as the minimal threshold required to score an interaction as positive. […]. Below we highlight the screening results obtained for our exemplary fluorescent tracers based on Clozapine, Amitriptyline and AZD1283.
(§2) HiBiT-GPCR DNA constructs were diluted in 10 mM Tris pH 8 to a final concentration of 0.01 μg/μL, arrayed in 96-well plates and stored at −20 °C. For transfection, HEK293 cells were suspended in Opti-MEM (without phenol red) supplemented with 2% fetal bovine serum (Seradigm) and 100 units/mL penicillin–streptomycin (Gibco) at a final concentration of 220,000 cells/mL and dispensed into white 96-well plates at 90 μL/well. Subsequent transfections and screens were carried using an Agilent Bravo Automated Liquid Handling Platform. First, the 96-well HiBiT DNA arrays were diluted 25-fold in Opti-MEM (without serum or phenol red) to a final concentration of 0.0004 μg/μL and 20 μL of the diluted DNAs were transferred into new 96-well plates. Next, promoterless carrier DNA (1 μg/μL) was diluted 25-fold (0.04 μg/μL) and then dispensed into the diluted arrays at 20 μL/well. Following brief mixing, Viafect transfection reagent (Promega) diluted 16-fold into Opti-MEM was dispensed into the plates at 40 μL/well. After mixing by pipetting, plates were incubated for 10 min on the pipetting station deck. The DNA-transfection reagent complexes were then added to plates containing cells. To facilitate the screen, 10 μL of DNA-transfection reagent complexes were added in duplicates to the top 4 and bottom 4 rows, resulting in two identical 48-well arrays per plate. Plates with transfected cells were incubated for 18–20 h at 37 °C/5% CO2. A screen of each tracer across the entire library using two different concentrations requires duplicate plates of transfected cells. Depending on the number of tracers being screened, transfections can be scaled up using the same ratios. The next day, for each tracer, four 20× screening solutions in tracer dilution buffer (Promega) were prepared: two duplicates at final concentration of 20 μM and two duplicates at a final concentration of 2 μM. A competing unmodified compound was added to one of each duplicate at a final concentration of 400 μM. The four resulting solutions were diluted 4-fold in Opti-MEM without serum or phenol red to generate 5× solutions (5 µM and 0.5 µM tracer +/− 100 μM competing compound). To screen the library, a BioTek MultiFlo FX liquid dispenser was used to dispense 22.5 µL of tracer solution to the top 4 rows and 22.5 µL tracer + competing compound solution to the 4 bottom rows. Plates were briefly mixed on an orbital shaker and incubated for 1.5 h at room temperature. […]

PTGDR2 = molecular target: T2, PTGDR2 (Homo sapiens, UniProt Q9Y5Y4); assay: NanoBRET screen HiBiT-PTGDR2 in HEK293
T2 construct: purchased Promega (in-house HiBiT-GPCR construct library, NanoBRET)
T2 sequence (Q9Y5Y4 1-395): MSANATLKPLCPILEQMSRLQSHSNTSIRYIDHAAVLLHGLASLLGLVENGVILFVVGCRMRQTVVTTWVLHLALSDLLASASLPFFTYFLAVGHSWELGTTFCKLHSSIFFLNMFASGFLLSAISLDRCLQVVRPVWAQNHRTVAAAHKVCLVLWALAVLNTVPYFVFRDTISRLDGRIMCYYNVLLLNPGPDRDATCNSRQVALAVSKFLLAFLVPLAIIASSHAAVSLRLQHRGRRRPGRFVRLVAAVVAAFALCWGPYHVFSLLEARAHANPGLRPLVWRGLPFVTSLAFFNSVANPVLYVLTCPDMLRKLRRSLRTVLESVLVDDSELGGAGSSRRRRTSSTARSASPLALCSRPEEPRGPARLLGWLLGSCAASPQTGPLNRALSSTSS
Protocol: as §1, §2

GRM8 = molecular target: T3, GRM8 (Homo sapiens, UniProt O00222); assay: NanoBRET screen HiBiT-GRM8 in HEK293
T3 construct: purchased Promega (in-house HiBiT-GPCR construct library, NanoBRET)
T3 sequence (O00222 34-908): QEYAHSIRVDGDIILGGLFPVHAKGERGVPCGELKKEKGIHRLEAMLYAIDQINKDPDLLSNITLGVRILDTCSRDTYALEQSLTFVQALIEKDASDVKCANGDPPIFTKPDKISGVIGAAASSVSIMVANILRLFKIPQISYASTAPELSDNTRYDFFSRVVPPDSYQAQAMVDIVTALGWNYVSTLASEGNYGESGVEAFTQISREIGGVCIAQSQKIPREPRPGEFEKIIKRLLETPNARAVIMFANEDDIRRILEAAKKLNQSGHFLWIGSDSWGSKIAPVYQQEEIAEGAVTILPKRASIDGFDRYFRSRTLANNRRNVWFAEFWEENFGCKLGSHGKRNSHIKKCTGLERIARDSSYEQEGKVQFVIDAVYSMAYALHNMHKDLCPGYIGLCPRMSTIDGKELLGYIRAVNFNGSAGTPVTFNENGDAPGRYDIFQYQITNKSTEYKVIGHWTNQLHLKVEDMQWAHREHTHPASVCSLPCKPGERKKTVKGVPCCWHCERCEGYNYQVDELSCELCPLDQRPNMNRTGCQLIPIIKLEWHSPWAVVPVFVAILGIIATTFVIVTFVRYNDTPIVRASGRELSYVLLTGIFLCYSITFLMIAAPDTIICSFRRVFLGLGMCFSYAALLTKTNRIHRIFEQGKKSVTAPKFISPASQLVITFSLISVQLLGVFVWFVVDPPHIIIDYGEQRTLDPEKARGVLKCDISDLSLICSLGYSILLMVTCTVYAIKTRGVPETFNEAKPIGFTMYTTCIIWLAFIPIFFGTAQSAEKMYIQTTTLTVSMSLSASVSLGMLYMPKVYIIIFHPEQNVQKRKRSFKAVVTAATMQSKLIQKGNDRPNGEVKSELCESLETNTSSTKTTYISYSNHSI
Protocol: as §1, §2

T1 sequence (P22888 27-699): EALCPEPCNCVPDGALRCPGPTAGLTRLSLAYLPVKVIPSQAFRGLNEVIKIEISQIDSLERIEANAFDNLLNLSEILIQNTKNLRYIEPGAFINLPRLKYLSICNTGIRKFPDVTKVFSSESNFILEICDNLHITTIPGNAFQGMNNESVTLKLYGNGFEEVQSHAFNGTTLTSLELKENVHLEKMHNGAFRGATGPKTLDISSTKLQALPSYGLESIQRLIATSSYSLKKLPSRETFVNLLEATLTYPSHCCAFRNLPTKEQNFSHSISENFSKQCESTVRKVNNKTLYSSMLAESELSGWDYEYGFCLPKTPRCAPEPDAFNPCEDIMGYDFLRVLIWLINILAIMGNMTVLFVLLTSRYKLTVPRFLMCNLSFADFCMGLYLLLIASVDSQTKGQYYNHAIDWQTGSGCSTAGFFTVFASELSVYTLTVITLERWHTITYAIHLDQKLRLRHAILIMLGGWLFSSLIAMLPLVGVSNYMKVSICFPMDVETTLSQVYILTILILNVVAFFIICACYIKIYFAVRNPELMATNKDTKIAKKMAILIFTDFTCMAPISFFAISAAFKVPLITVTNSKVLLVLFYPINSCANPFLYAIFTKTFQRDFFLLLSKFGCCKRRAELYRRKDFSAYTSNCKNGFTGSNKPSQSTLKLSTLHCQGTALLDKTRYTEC

SMILES | NanoBRET Fold Response (LHCGR; LHCGR, tracer 0.1μM) | NanoBRET Fold Response (LHCGR; LHCGR, tracer 1μM) | NanoBRET Fold Response (PTGDR2; PTGDR2, tracer 0.1μM) | NanoBRET Fold Response (PTGDR2; PTGDR2, tracer 1μM) | NanoBRET Fold Response (GRM8; GRM8, tracer 0.1μM) | NanoBRET Fold Response (GRM8; GRM8, tracer 1μM) | other results
CCOC(=O)c1cc(C#N)c(N2CCC(C(=O)NS(=O)(=O)Cc3ccccc3/C=C/C(=O)NCCNC(=O)CCc3ccc4n3[B-](F)(F)[N+]3=C(c5ccc[nH]5)C=CC3=C4)CC2)nc1C [AZD1283-1-NB590] |  |  |  |  |  |  | NanoBRET Fold Response (LHCGR; LHCGR, 0.1μM): 1.00; NanoBRET Fold Response (LHCGR; LHCGR, 1μM): 1.02; NanoBRET Fold Response (PTGDR2; PTGDR2, 0.1μM): 1.07; NanoBRET Fold Response (PTGDR2; PTGDR2, 1μM): 1.03; NanoBRET Fold Response (GRM8; GRM8, 0.1μM): 0.99; NanoBRET Fold Response (GRM8; GRM8, 1μM): 1.01
N#CN=C(NCCCOc1cccc(CN2CCCCC2)c1)NCCNC(=O)CCOCCOCCOCCOCCNC(=O)CCc1ccc2n1[B-](F)(F)[N+]1=C(c3ccc[nH]3)C=CC1=C2 [Aminopotentidine-2-NB590] | 1.03 | 1.00 | 0.98 | 0.48 | 1.01 | 0.99 | 
CN(C)CCC=C1c2ccccc2CCc2ccc(C(=O)NCCNC(=O)CCOCCOCCOCCOCCNC(=O)CCc3ccc4n3[B-](F)(F)[N+]3=C(c5ccc[nH]5)C=CC3=C4)cc21 [Amitriptyline-b-2-NB590] | 1.05 | 1.00 |  |  | 1.01 | 0.99 | NanoBRET Fold Response (PTGDR2; tracer at 0.1μM): 1.00; NanoBRET Fold Response (PTGDR2; tracer at 1μM): 1.00
COc1ccc2c(n1)c(CCNC(C)=O)cn2CCNC(=O)CCc1ccc2n1[B-](F)(F)[N+]1=C(c3ccc[nH]3)C=CC1=C2 [Azamelatonin-1-NB590] |  |  |  |  |  |  | NanoBRET Fold Response (LHCGR; 0.1μM tracer): 1.03; NanoBRET Fold Response (LHCGR; 1μM tracer): 1.05; NanoBRET Fold Response (PTGDR2; 0.1μM tracer): 1.08; NanoBRET Fold Response (PTGDR2; 1μM tracer): 1.09; NanoBRET Fold Response (GRM8; 0.1μM tracer): 0.96; NanoBRET Fold Response (GRM8; 1μM tracer): 0.95
COc1ccc2[nH]c(-c3ccc(CNC(=O)CCOCCOCCOCCOCCNC(=O)CCc4ccc5n4[B-](F)(F)[N+]4=C(c6ccc[nH]6)C=CC4=C5)cc3)c(CCNC(C)=O)c2n1 [AzomelatoninICO9-2-NB590] |  |  |  |  |  |  | NanoBRET Fold Response (LHCGR; 0.1μM tracer): 1.01; NanoBRET Fold Response (LHCGR; 1μM tracer): 0.88; NanoBRET Fold Response (PTGDR2; 0.1μM tracer): 1.06; NanoBRET Fold Response (PTGDR2; 1μM tracer): 1.12; NanoBRET Fold Response (GRM8; 0.1μM tracer): 0.98; NanoBRET Fold Response (GRM8; 1μM tracer): 0.98
O=C(CCOCCOCCOCCOCCNC(=O)CCc1ccc2n1[B-](F)(F)[N+]1=C(c3ccc[nH]3)C=CC1=C2)NCCCN1CCN(C2=Nc3cc(Cl)ccc3Nc3ccccc32)CC1 [Clozapine-a-2-NB590] |  |  |  |  |  |  | NanoBRET Fold Response (LHCGR; LHCGR, 0.1μM tracer): 0.93; NanoBRET Fold Response (LHCGR; LHCGR, 1μM tracer): 1.05; NanoBRET Fold Response (PTGDR2; PTGDR2, 0.1μM tracer): 1.01; NanoBRET Fold Response (PTGDR2; PTGDR2, 1μM tracer): 1.00; NanoBRET Fold Response (GRM8; GRM8, 0.1μM tracer): 1.01; NanoBRET Fold Response (GRM8; GRM8, 1μM tracer): 1.00
CN1CCN(C2=Nc3cc(Cl)ccc3Nc3ccc(CNC(=O)CCOCCOCCOCCOCCNC(=O)CCc4ccc5n4[B-](F)(F)[N+]4=C(c6ccc[nH]6)C=CC4=C5)cc32)CC1 [Clozapine-b-2-NB590] |  |  |  |  |  |  | NanoBRET Fold Response (LHCGR; LHCGR, 0.1μM tracer): 1.06; NanoBRET Fold Response (LHCGR; LHCGR, 1μM tracer): 0.99; NanoBRET Fold Response (PTGDR2; PTGDR2, 0.1μM tracer): 1.01; NanoBRET Fold Response (PTGDR2; PTGDR2, 1μM tracer): 1.02; NanoBRET Fold Response (GRM8; GRM8, 0.1μM tracer): 1.01; NanoBRET Fold Response (GRM8; GRM8, 1μM tracer): 1.02
CN1CCN(C2=Nc3cc(Cl)ccc3N(CC(=O)NCCOCCOCCOCCOCCNC(=O)CCc3ccc4n3[B-](F)(F)[N+]3=C(c5ccc[nH]5)C=CC3=C4)c3ccccc32)CC1 [Clozapine-c-2-NB590] |  |  |  |  |  |  | NanoBRET Fold Response (LHCGR; LHCGR, 0.1μM tracer): 1.05; NanoBRET Fold Response (LHCGR; LHCGR, 1μM tracer): 1.07; NanoBRET Fold Response (PTGDR2; PTGDR2, 0.1μM tracer): 0.96; NanoBRET Fold Response (PTGDR2; PTGDR2, 1μM tracer): 1.02; NanoBRET Fold Response (GRM8; GRM8, 0.1μM tracer): 0.97; NanoBRET Fold Response (GRM8; GRM8, 1μM tracer): 1.07
O=C(CCOCCOCCOCCOCCNC(=O)CCc1ccc2n1[B-](F)(F)[N+]1=C(c3ccc[nH]3)C=CC1=C2)NCCCN1CCN(C2=Nc3ccccc3Oc3ccc(Cl)cc32)CC1 [Loxapine-a-2-NB590] | 0.97 | 1.15 | 1.06 | 1.04 | 1.01 | 1.07 | 
COc1ccccc1N1CCN(CCCCN2C(=O)c3ccc(CNC(=O)CCOCCOCCOCCOCCNC(=O)CCc4ccc5n4[B-](F)(F)[N+]4=C(c6ccc[nH]6)C=CC4=C5)cc3C2=O)CC1 [NAN-190-2-NB590] | 0.98 | 1.04 |  | 1.02 | 1.02 |  | 
COc1ccccc1N1CCN(CCCCN2C(=O)c3ccc(CNC(=O)CCOCCNC(=O)c4ccc(CNC(=O)CCc5ccc6n5[B-](F)(F)[N+]5=C(c7ccc[nH]7)C=CC5=C6)cc4)cc3C2=O)CC1 [NAN-190-3-NB590] | 0.98 | 1.08 | 0.87 | 0.85 | 1.21 | 0.96 | 
O=C(CCc1ccc2n1[B-](F)(F)[N+]1=C(c3ccc[nH]3)C=CC1=C2)NCc1ccc(C(=O)NCCOCCC(=O)N[C@@H]2CC[C@@]3(O)[C@H]4Cc5ccc(O)c6c5[C@@]3(CCN4CC3CC3)[C@H]2O6)cc1 [Naltrexone-3-NB590] | 0.89 | 1.12 | 0.98 | 1.00 | 1.07 | 0.93 | 
Cc1cc2c(s1)Nc1ccccc1N=C2N1CCN(CCCNC(=O)CCOCCOCCOCCOCCNC(=O)CCc2ccc3n2[B-](F)(F)[N+]2=C(c4ccc[nH]4)C=CC2=C3)CC1 [Olanzapine-a-2-NB590] | 1.00 | 1.01 | 0.97 | 0.96 | 0.97 | 1.04 | 
O=C(CCc1ccc2n1[B-](F)(F)[N+]1=C(c3ccc[nH]3)C=CC1=C2)NCc1ccc(C(=O)NCCOCCOCCNCC(O)COc2cccc3ccccc23)cc1 (stereo not shown) [Propranolol-3-NB590] |  |  |  |  |  |  | NanoBRET Fold Response (LHCGR; LHCGR, 0.1μM): 1.04; NanoBRET Fold Response (LHCGR; LHCGR, 1μM): 1.00; NanoBRET Fold Response (PTGDR2; PTGDR2, 0.1μM): 0.96; NanoBRET Fold Response (PTGDR2; PTGDR2, 1μM): 1.06; NanoBRET Fold Response (GRM8; GRM8, 0.1μM): 0.99; NanoBRET Fold Response (GRM8; GRM8, 1μM): 1.00
O=C(CCc1ccc2n1[B-](F)(F)[N+]1=C(c3ccc[nH]3)C=CC1=C2)NCCOCCOCCNC(=O)OCCOCCN1CCN(C2=Nc3ccccc3Sc3ccccc32)CC1 [Quetiapine-a-2-NB590] | 1.01 | 0.79 | 0.96 | 1.05 | 0.98 | 1.00 | 
Cc1nc2n(c(=O)c1CCN1CCC(c3noc4cc(F)ccc34)CC1)CCCC2OC(=O)NCCOCCOCCOCCOCCNC(=O)CCc1ccc2n1[B-](F)(F)[N+]1=C(c3ccc[nH]3)C=CC1=C2 (stereo not shown) [Risperidone-2-NB590] | 0.99 | 1.04 | 0.99 | 0.96 | 1.00 | 1.04 | 
